The values that follow are results of earlier work, collected in patent publication US20240408079A1, “COMPOSITIONS AND METHODS FOR THE TREATMENT OF CANCER” (THE TRANSLATIONAL GENOMICS RESEARCH INSTITUTE, priority 2021, published 2024).

The conditions of series [1]: preclinical studies, in vivo.
For the next series, the system named is ES cell lines. Particulars: multiple ES cell lines.
Another series relates to EWS-FLI. Particulars: preclinical studies.

Regarding Seclidemstat [SP-2577], the antitumoral activity result in series [1] is “little antitumoral activity in vivo”. Moreover, the “tissue culture cell viability” value with ES cell lines is “ability to impair tissue culture cell viability”. In the series with EWS-FLI, the “transcriptional profiles driven by EWS-FLI” value was “reverse the transcriptional profiles” and the tumorigenesis in vitro entry was “significantly delay tumorigenesis”.

In the case of `C/C(=N\NC(=O)c1cccc(S(=O)(=O)N2CCOCC2)c1)c1cc(Cl)ccc1O` [SP-2509], in the series with EWS-FLI, the “transcriptional profiles driven by EWS-FLI” value is reported as “reverse the transcriptional profiles” and the tumorigenesis in vitro entry was “significantly delay tumorigenesis”.
